{"source": "paper PMC6105804", "about": "“In Vitro and In Vivo Evaluation of APX001A/APX001 and Other Gwt1 Inhibitors against Cryptococcus” (Antimicrobial Agents and Chemotherapy, 2018)", "key": {"[1]": {"from_the_text": "For pharmacokinetic and efficacy studies, the prodrugs APX001, APX2096, APX2097, and APX2104 (Amplyx Pharmaceuticals) were used. […] The prodrugs APX2096, APX2097, and APX2104 were formulated similarly to enable oral and i.p. dosing of compounds for pharmacokinetic and efficacy studies."}, "[2]": {"test_system": "C. neoformans strain H99", "assay": "Murine cryptococcal meningitis model with ABT pretreatment (preliminary experiment)", "type": "in vivo, Cryptococcus neoformans", "procedure": "In a preliminary experiment, the efficacies of APX001, APX2096, and APX2097 were evaluated in the disseminated model of CM (n = 5 mice/cohort). ABT at 100 mg/kg was administered orally to male CD-1 mice 2 h prior to APX compound administration. Mice were injected with 6.9 × 10^4 CFU of C. neoformans strain H99 per mouse via the lateral tail vein at time zero. Treatment with each prodrug was initiated at about 1 h postinfection by i.p. administration and continued daily for 7 days, with 100-mg/kg ABT being administered orally 2 h prior to each APX compound dose.\n(§1) ABT at 100 mg/kg was administered orally to male CD-1 mice at 2 h prior to each APX compound dose. Mice were injected with 6.9 × 10^4 CFU of C. neoformans strain H99 per mouse via the lateral tail vein at time zero. Treatment with the APX compound was initiated at about 1 h postinfection by i.p. administration and continued for 7 days, with 100-mg/kg ABT being administered orally 2 h prior to each APX compound dose. […] Fungal burden data were log10 transformed and evaluated using Kruskal-Wallis tests with Dunn's multiple-comparison test for post hoc analysis (Prism software, v5; GraphPad Software, Inc., San Diego, CA). A P value of ≤0.05 was considered statistically significant (*, P ≤ 0.05; **, P ≤ 0.01). The 95% confidence interval (CI) is presented.\n(§2) C. neoformans strain H99 was grown in yeast extract-peptone-dextrose broth at 30°C on a shaker (220 rpm) for 24 h, centrifuged (1,980 relative centrifugal force), and washed twice in phosphate-buffered saline (PBS), resuspended in PBS, and quantified by hemacytometric count. Male CD-1 mice were infected with ∼5 × 10^4 CFU per mouse via lateral tail vein injection of 100 μl. Mice were weighed, and treatment was begun within 1 h after infection. Treatments were administered daily for 7 days. Mice were weighed daily and observed for acute and chronic adverse symptoms. Mice were sacrificed on day 8, and the brain and left lung were homogenized and cultured for quantitative determination of the tissue burden (number of CFU per gram of tissue). Tissues were homogenized for 25 s in 1 ml phosphate-buffered saline using two 6.5-mm steel beads and a Mini-Beadbeater 16 apparatus (Biospec Products, Inc., Bartlesville, OK) and serially diluted in 10-fold steps. Aliquots (100 μl) of homogenate were plated and incubated for 3 to 7 days at 37°C. Fungal burden data were log10 transformed and evaluated using Kruskal-Wallis tests with Dunn's multiple-comparison test for post hoc analysis (Prism software, v5; GraphPad Software, Inc., San Diego, CA). A P value of ≤0.05 was considered statistically significant."}, "[3]": {"set-up": "method as in ref 11, 12 = [11]; 11. Hodges MR , Ople E , Shaw KJ , Mansbach RS , van Marle S , van Hoogdalem E , Kramer W , Wedel P 2017 Phase 1 study to assess safety, tolerability and pharmacokinetics of single and multiple oral d || [12]; 12. Hodges MR , Ople E , Shaw KJ , Mansbach RS , van Marle S , van Hoogdalem E , Wedel P , Kramer W 2017 First-in-human study to assess safety, tolerability and pharmacokinetics of APX001 administered", "conditions": "cited from earlier work"}, "[4]": {"assay": "Acute toxicity and survival observed in the CM model with ABT", "type": "in vivo, mouse", "conditions": "n = 5 mice/cohort; 7 days i.p. + ABT", "procedure": "as §1, §2"}, "[5]": {"test_system": "C. albicans", "set-up": "method as in ref 23 = [23]; 23. Zhao Y , Lee M , Lee A , Paderu P , Park S , Perlin DS 2018 APX001 is effective against echinocandin and multi-drug resistant Candida isolates . Abstr 28th ECCMID , Madrid, Spain .", "conditions": "after ABT administration, after 48 h; cited from earlier work"}, "[6]": {"test_system": "C. neoformans strain H99", "assay": "Murine model of cryptococcal meningitis, APX001 alone and with FLC (no ABT)", "type": "in vivo, Cryptococcus neoformans", "procedure": "The efficacies of APX001 and FLC were evaluated in a well-established mouse CM model ([34]). Since Cryptococcus infections can be hematogenously disseminated to other organs, the numbers of CFU in both lung and brain tissue were evaluated. Male CD-1 mice were infected with 5.9 × 10^4 CFU of C. neoformans strain H99 via lateral tail vein injection. Mice were assigned to four groups (n = 10), consisting of (i) treatment with APX001, (ii) treatment with APX001 plus FLC, (iii) treatment with FLC, or (iv) no treatment as a control. Treatment was initiated within 1 h after infection. APX001 was administered by oral gavage at a dose of 390 mg/kg thrice daily (TID), with each dose being administered roughly 8 h apart. […] FLC (2 mg/ml; Sagent Pharmaceuticals, Schaumburg, IL) was administered at a dose of 80 mg/kg/day intraperitoneally (i.p.).\nBrain and lung burdens in mice were measured at 7 days postinfection with C. neoformans H99. Male CD-1 mice were infected with 5.9 × 10^4 CFU of C. neoformans strain H99 via the lateral tail vein. Treatment was initiated at about 1 h postinfection and continued for 7 days. APX001 was administered by oral gavage at a dose of 390 mg/kg thrice daily, with each dose being administered roughly 8 h apart. FLC (2 mg/ml; Sagent Pharmaceuticals, Schaumburg, IL) was administered at a dose of 80 mg/kg/day i.p. once daily. Fungal burden data were log10 transformed and evaluated using Kruskal-Wallis tests with Dunn's multiple-comparison test for post hoc analysis (Prism software, v5; GraphPad Software, Inc., San Diego, CA). A P value of ≤0.05 was considered statistically significant (*, P ≤ 0.05; **, P ≤ 0.01; ***, P ≤ 0.001). The 95% confidence interval (CI) is presented.\nas §2"}, "[7]": {"conditions": "80 mg/kg in the presence of ABT"}, "[8]": {"conditions": "85 mg/kg QD i.p. + ABT 100 mg/kg p.o., 7 days"}, "[9]": {"conditions": "APX001 390 mg/kg TID oral plus FLC 80 mg/kg/day i.p., 7 days"}, "[10]": {"conditions": "monotherapy 7 days, APX001 390 mg/kg TID oral gavage, FLC 80 mg/kg/day i.p., male CD-1 mice"}}, "note": "Where “and” joins values, the source holds several entries; their conditions need not be identical. Equal values may be shown once."}
{"compound": "Nc1c(-c2cc(Cc3ccc(COc4ccccn4)cc3)no2)ccc[n+]1COP(=O)([O-])O", "note": "[APX001]", "values": [{"measurement": "solubility in water", "setting": "[1]", "result": "soluble in water"}, {"measurement": "reduction in lung fungal burden", "setting": "[2]; 34 mg/kg QD i.p. + ABT 100 mg/kg p.o., 7 days", "result": "neither the 34-mg/kg nor the 85-mg/kg dose of APX001 achieved a statistically significant reduction"}, {"measurement": "reduction in brain fungal burden", "setting": "[2]; [7]", "result": 0.85, "unit": "log10 CFU/g"}, {"measurement": "reduction in lung fungal burden", "setting": "[2]; [7]", "result": 0.9, "unit": "log10 CFU/g"}, {"measurement": "reduction in brain fungal burden", "setting": "[2]; [8]", "result": 0.85, "unit": "log10 CFU/g"}, {"measurement": "reduction in lung fungal burden", "setting": "[2]; [8]", "result": "neither the 34-mg/kg nor the 85-mg/kg dose of APX001 achieved a statistically significant reduction"}, {"measurement": "bioavailability", "setting": "[3]; phase 1 clinical trials", "result": "> 90", "unit": "%"}, {"measurement": "half-life in humans", "setting": "[3]; phase 1 studies in healthy volunteers", "result": 60, "unit": "h"}, {"measurement": "final numbers of surviving mice", "setting": "[4]", "result": 5}, {"measurement": "reduction of C. albicans kidney burdens", "setting": "[5]", "result": "6.0 ± 0.1", "unit": "log10 CFU/g kidney tissue"}, {"measurement": "reduction in brain fungal burden vs untreated control, combination of APX001 and FLC", "setting": "[6]; [9]", "result": "3.52 log10 CFU/g and 3.51 log10 CFU/g"}, {"measurement": "reduction in lung fungal burden vs untreated control, combined therapy", "setting": "[6]; [9]", "result": 1.84, "unit": "log10 CFU/g"}, {"measurement": "reduction in brain fungal burden vs untreated control", "setting": "[6]; [10]", "result": 0.78, "unit": "log10 CFU/g"}, {"measurement": "reduction in lung fungal burden vs untreated control", "setting": "[6]; [10]", "result": "1.50 log10 CFU/g and 1.5 log10 CFU/g"}]}
